Data from patent US8188090B2, “Naphthylacetic acids” (Hoffman-La Roche Inc., priority 2008, dated 2012).
pIC50: −log10 of the molar value.

Target: T1, human CRTH2 (Homo sapiens, UniProt Q9Y5Y4)
T1 sequence (Q9Y5Y4 1-395): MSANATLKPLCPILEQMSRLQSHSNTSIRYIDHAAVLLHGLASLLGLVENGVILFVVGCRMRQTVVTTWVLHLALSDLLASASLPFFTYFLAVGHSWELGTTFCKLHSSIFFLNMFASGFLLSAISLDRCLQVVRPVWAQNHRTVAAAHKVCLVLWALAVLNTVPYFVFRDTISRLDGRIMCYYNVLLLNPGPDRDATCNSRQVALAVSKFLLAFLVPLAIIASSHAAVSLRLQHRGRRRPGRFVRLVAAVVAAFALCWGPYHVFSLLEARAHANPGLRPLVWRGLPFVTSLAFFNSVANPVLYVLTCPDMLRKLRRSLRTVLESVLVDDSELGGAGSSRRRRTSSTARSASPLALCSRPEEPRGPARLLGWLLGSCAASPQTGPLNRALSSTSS
Test: Human CRTH2 Receptor Binding Assay (whole cell, [3H]ramatroban)
Design: expressed in transfected cells; host or cells: CHO-K1
Conditions: whole CHO-K1 cells stably expressing human CRTH2 and G-alpha16; 20 nM [3H]ramatroban; 1 hour, room temperature
Description: A whole cell receptor binding assay using [^3H]ramatroban as the competing radioactive ligand was employed to evaluate the compound binding activity to human CRTH2. The radioactive ligand [^3H]ramatroban was synthesized according to Sugimoto et. al. (Eur. J. Pharmacol. 524, 30-37, 2005) to a specific activity of 42 Ci/mmol.
A cell line stably expressing human CRTH2 was established by transfecting CHO-K1 cells with two mammalian expression vectors that harbored human CRTH2 and G-alpha16 cDNAs, respectively, using FuGene® 6 transfection reagent (from Roche). Stable clones expressing CRTH2 were selected by staining each clone with BM16 (BD Pharmingen™ from BD Biosciences, a division of Becton, Dickinson and Company), which is a rat monoclonal antibody to human CRTH2. The cells were maintained as monolayer cultures in Ham's F-12 medium containing 10% fetal bovine serum, 100 units/mL penicillin, 100 μg/mL streptomycin, 2 mM glutamine, 0.5 mg/mL G418 (geneticin) for CRTH2, and 0.2 mg/mL hygromycin-B (for G-alpha 16). For whole cell receptor binding assay, the monolayer cells were rinsed once with PBS (phosphate buffered saline), dissociated using ethylenediaminetetraacetate (Versene™ EDTA from Lonza Inc.), and suspended in PBS containing 10 mM MgCl2 and 0.06% BSA (bovine serum albumin) at 1.5×10^6 cells/mL.
The binding reactions (0.2 mL) were performed in 96-well plates at room temperature in PBS containing 1.5×10^5 cells, 10 mM MgCl2, 0.06% BSA, 20 nM [^3H]ramatroban, and test compound at various concentrations. After 1 hour of binding reactions, the cells were harvested on GF™/B filter microplates (microtiter plates with embedded glass fiber from PerkinElmer, Inc.) and washed 5 times with PBS using a Filtermate™ Harvester (a cell harvester that harvests and washes cells from microplates from PerkinElmer, Inc.). The radioactivities bound to the cells were determined using a microplate scintillation counter (TopCount® NXT, from PerkinElmer, Inc.) after adding 50 μL of Microscint™ 20 scintillation fluid (from PerkinElmer, Inc.) to each well of the filter plates. The radioactivity from non-specific binding was determined by replacing compound with 10 μM of 15(R)-15-methyl PGD2 (from Cayman Chemical Company) in the reaction mixtures. The radioactivity bound to the cells in the absence of compound (total binding) was determined by replacing compound with 0.25% of DMSO (dimethyl sulfoxide) in the reaction mixture. Specific binding data were obtained by subtracting the radioactivity of non-specific binding from each binding data.
The IC50 value is defined as the concentration of the tested compound that is required for 50% inhibition of total specific binding. In order to calculate the IC50 value, the percent inhibition data were determined for 7 concentrations for each compound. The percent inhibition for a compound at each concentration was calculated according to the following formula, [1-(specific binding in the presence of compound)/(total specific binding)]×100. The IC50 value was then obtained by fitting the percent inhibition data to a sigmoidal dose-response (4 parameter logistic) model in the XLfit® software Excel add-in program [from ID Business Solutions Ltd., model 205, where F(x)=(A+(B−A)/(1+((C/x)^D)))].

Compared with COc1cccc(N2CCN(C(=O)c3c(C)c(CC(=O)O)cc4ccc(F)cc34)CC2)c1 [Example 2-9, {6-Fluoro-4-[4-(3-methoxy-phenyl)-piperazine-1-carbonyl]-3-methyl-naphthalen-2-yl}-acetic acid], COc1ccc(N2CCN(C(=O)c3c(C)c(CC(=O)O)cc4ccc(F)cc34)CC2)cc1 [Example 2-12, {6-Fluoro-4-[4-(4-methoxy-phenyl)-piperazine-1-carbonyl]-3-methyl-naphthalen-2-yl}-acetic acid] is 0.23 log units lower in pIC50: 7.20 for the first, 6.97 for the second.

First: Cc1c(CC(=O)O)cc2ccc(F)cc2c1C(=O)N1CCN(c2cc(C(F)(F)F)cc(C(F)(F)F)c2)CC1 [Example 2-11, {4-[4-(3,5-Bis-trifluoromethyl-phenyl)-piperazine-1-carbonyl]-6-fluoro-3-methyl-naphthalen-2-yl}-acetic acid]
Second: Cc1c(CC(=O)O)cc2ccc(F)cc2c1C(=O)N1CCN(c2ccc(C(F)(F)F)cc2)CC1 [Example 2-19, {6-Fluoro-3-methyl-4-[4-(4-trifluoromethyl-phenyl)-piperazine-1-carbonyl]-naphthalen-2-yl}-acetic acid]
The pIC50 of the first is 1.30 log units lower: 6.70 for the first, 8.00 for the second. The second is the more potent here.

Cc1c(CC(=O)O)cc2ccc(F)cc2c1C(=O)N1CCN(c2ccc(F)cc2F)CC1 [Example 2-13, {4-[4-(2,4-Difluoro-phenyl)-piperazine-1-carbonyl]-6-fluoro-3-methyl-naphthalen-2-yl}-acetic acid] and Cc1c(CC(=O)O)cc2ccc(F)cc2c1C(=O)N1CCN(c2ccccc2Cl)CC1 [Example 2-20, {4-[4-(2-Chloro-phenyl)-piperazine-1-carbonyl]-6-fluoro-3-methyl-naphthalen-2-yl}-acetic acid] are within 0.2 log units of each other in pIC50: 6.86 for the first, 6.90 for the second.

Going from COc1cc(OC)cc(N2CCN(C(=O)c3c(C)c(CC(=O)O)cc4ccc(F)cc34)CC2)c1 [Example 2-14, {4-[4-(3,5-Dimethoxy-phenyl)-piperazine-1-carbonyl]-6-fluoro-3-methyl-naphthalen-2-yl}-acetic acid] to Cc1c(CC(=O)O)cc2ccc(F)cc2c1C(=O)N1CCN(c2cc(Cl)cc(Cl)c2)CC1 [Example 2-17, {4-[4-(3,5-Dichloro-phenyl)-piperazine-1-carbonyl]-6-fluoro-3-methyl-naphthalen-2-yl}-acetic acid], the pIC50 rises from 7.18 to 7.66 (0.48 log units). The second is the more potent here.

First: Cc1ccc(N2CCN(C(=O)c3c(C)c(CC(=O)O)cc4ccc(F)cc34)CC2)cc1 [Example 2-16, [6-Fluoro-3-methyl-4-(4-p-tolyl-piperazine-1-carbonyl)-naphthalen-2-yl]-acetic acid]
Second: Cc1c(CC(=O)O)cc2ccc(F)cc2c1C(=O)N1CCN(c2ccc(Cl)cc2)CC1 [Example 2-18, {4-[4-(4-Chloro-phenyl)-piperazine-1-carbonyl]-6-fluoro-3-methyl-naphthalen-2-yl}-acetic acid]
The pIC50 of the first is 0.46 log units lower: 7.57 for the first, 8.03 for the second.

Cc1c(CC(=O)O)cc2ccc(F)cc2c1C(=O)N1CCN(c2cccc(Cl)c2)CC1 [Example 2-21, {4-[4-(3-Chloro-phenyl)-piperazine-1-carbonyl]-6-fluoro-3-methyl-naphthalen-2-yl}-acetic acid] and Cc1c(CC(=O)O)cc2ccc(F)cc2c1C(=O)N1CCN(c2ccc(C#N)cc2)CC1 [Example 2-24, {4-[4-(4-Cyano-phenyl)-piperazine-1-carbonyl]-6-fluoro-3-methyl-naphthalen-2-yl}-acetic acid] are within 0.2 log units of each other in pIC50: 7.72 for the first, 7.66 for the second.

Going from Cc1c(CC(=O)O)cc2ccc(F)cc2c1C(=O)N1CCN(c2ccc(C(F)(F)F)cn2)CC1 [Example 2-22, {6-Fluoro-3-methyl-4-[4-(5-trifluoromethyl-pyridin-2-yl)-piperazine-1-carbonyl]-naphthalen-2-yl}-acetic acid] to Cc1c(CC(=O)O)cc2ccc(F)cc2c1C(=O)N1CCN(c2c(Cl)cncc2Cl)CC1 [Example 2-23, {4-[4-(3,5-Dichloro-pyridin-4-yl)-piperazine-1-carbonyl]-6-fluoro-3-methyl-naphthalen-2-yl}-acetic acid], the pIC50 falls from 7.95 to 7.20 (0.75 log units).

Going from CC(C)(C)OC(=O)N1CCC(Oc2cc(CC(=O)O)cc3ccc(F)cc23)CC1 [Example 3-1, 4-(3-Carboxymethyl-7-fluoro-naphthalen-1-yloxy)-piperidine-1-carboxylic acid tert-butyl ester] to CC(C)C(=O)N1CCC(Oc2cc(CC(=O)O)cc3ccc(F)cc23)CC1 [Example 5-3, [6-Fluoro-4-(1-isobutyryl-piperidin-4-yloxy)-naphthalen-2-yl]-acetic acid], the pIC50 falls from 7.35 to 6.85 (0.50 log units).

Compared with CS(=O)(=O)N1CCC(Oc2cc(CC(=O)O)cc3ccc(F)cc23)CC1 [Example 4-1, [6-Fluoro-4-(1-methanesulfonyl-piperidin-4-yloxy)-naphthalen-2-yl]-acetic acid], CC(C)S(=O)(=O)N1CCC(Oc2cc(CC(=O)O)cc3ccc(F)cc23)CC1 [Example 4-3, {6-Fluoro-4-[1-(propane-2-sulfonyl)-piperidin-4-yloxy]-naphthalen-2-yl}-acetic acid] is 0.51 log units lower in pIC50: 8.03 for the first, 7.52 for the second. The first is the more potent here.

Compared with O=C(O)Cc1cc(OC2CCN(S(=O)(=O)C3CC3)CC2)c2cc(F)ccc2c1 [Example 4-4, [4-(1-Cyclopropanesulfonyl-piperidin-4-yloxy)-6-fluoro-naphthalen-2-yl]-acetic acid], O=C(O)Cc1cc(OC2CCN(S(=O)(=O)C3CCCC3)CC2)c2cc(F)ccc2c1 [Example 4-5, [4-(1-Cyclopentanesulfonyl-piperidin-4-yloxy)-6-fluoro-naphthalen-2-yl]-acetic acid] is 0.40 log units higher in pIC50: 7.60 for the first, 8.00 for the second.

O=C(O)Cc1cc(OC2CCN(S(=O)(=O)c3ccccc3)CC2)c2cc(F)ccc2c1 [Example 4-6, [4-(1-Benzenesulfonyl-piperidin-4-yloxy)-6-fluoro-naphthalen-2-yl]-acetic acid] and O=C(O)Cc1cc(OC2CCN(S(=O)(=O)Cc3ccccc3)CC2)c2cc(F)ccc2c1 [Example 4-10, [6-Fluoro-4-(1-phenylmethanesulfonyl-piperidin-4-yloxy)-naphthalen-2-yl]-acetic acid] are within 0.2 log units of each other in pIC50: 8.49 for the first, 8.57 for the second.

Going from O=C(O)Cc1cc(OC2CCN(S(=O)(=O)c3cccc(F)c3)CC2)c2cc(F)ccc2c1 [Example 4-7, {6-Fluoro-4-[1-(3-fluoro-benzenesulfonyl)-piperidin-4-yloxy]-naphthalen-2-yl}-acetic acid] to O=C(O)Cc1cc(OC2CCN(S(=O)(=O)c3ccc(F)cc3)CC2)c2cc(F)ccc2c1 [Example 4-8, {6-Fluoro-4-[1-(4-fluoro-benzenesulfonyl)-piperidin-4-yloxy]-naphthalen-2-yl}-acetic acid], the pIC50 rises from 8.30 to 8.62 (0.32 log units). The second is the more potent here.

First: CCC(=O)N1CCC(Oc2cc(CC(=O)O)cc3ccc(F)cc23)CC1 [Example 5-2, [6-Fluoro-4-(1-propionyl-piperidin-4-yloxy)-naphthalen-2-yl]-acetic acid]
Second: O=C(O)Cc1cc(OC2CCN(C(=O)C3CC3)CC2)c2cc(F)ccc2c1 [Example 5-4, [4-(1-Cyclopropanecarbonyl-piperidin-4-yloxy)-6-fluoro-naphthalen-2-yl]-acetic acid]
The pIC50 of the first is 0.25 log units lower: 6.92 for the first, 7.17 for the second. The second is the more potent here.

Compared with O=C(O)Cc1cc(OC2CCN(C(=O)C3CCCC3)CC2)c2cc(F)ccc2c1 [Example 5-5, [4-(1-Cyclopentanecarbonyl-piperidin-4-yloxy)-6-fluoro-naphthalen-2-yl]-acetic acid], O=C(O)Cc1cc(OC2CCN(C(=O)c3ccccc3)CC2)c2cc(F)ccc2c1 [Example 5-6, [4-(1-Benzoyl-piperidin-4-yloxy)-6-fluoro-naphthalen-2-yl]-acetic acid] is 0.60 log units higher in pIC50: 7.27 for the first, 7.87 for the second. The second is the more potent here.
